From paper PMC11995724, “Antibiotic target discovery by integrated phenotypic and activity-based profiling of electrophilic fragments” (Cell chemical biology, 2025)

Assay: in vitro
Conditions: human, hek293t cells

Structure (SMILES)	viability at 48 h, 25 µM [%]
Cc1c(C#N)c(NC(=O)CCl)n(C2CCCCC2)c1C [4-N18, 2-chloro-N-(3-cyano-1-cyclohexyl-4,5-dimethyl-1H-pyrrol-2-yl)acetamide]	0.0875
CC(C)Cc1nnc(NC(=O)CCl)s1 [4-A17, 2-chloro-N-[5-(2-methylpropyl)-1,3,4-thiadiazol-2-yl]acetamide]	0.521
COc1ccc(NC(=O)C(C#N)=Cc2ccc(-c3ccccc3)cc2)cc1 [8-D11, 3-{[1,1'-biphenyl]-4-yl}-2-cyano-N-(4-methoxyphenyl)prop-2-enamide]	103
N#CC(=Cc1ccccc1O)C(=O)Nc1cccc2ncccc12 [9-G04, 2-cyano-3-(2-hydroxyphenyl)-N-(quinolin-5-yl)prop-2-enamide]	123
N#CC(=Cc1cnc2ccc(C#N)cn12)C(=O)Nc1ccc(F)cc1 [9-E20, 2-cyano-3-{6-cyanoimidazo[1,2-a]pyridin-3-yl}-N-(4-fluorophenyl)prop-2-enamide]	99.4
C=CC(=O)NCCc1nccs1 [3-M20, N-[2-(1,3-thiazol-2-yl)ethyl]prop-2-enamide]	89.6
CC(C)C(NC(=O)CCl)c1ccccc1 (stereo not shown) [4-K11, 2-chloro-N-(2-methyl-1-phenylpropyl)acetamide]	3.98
CC(C)c1ccc(CN(C(=O)CCl)C2CC2)cc1 [6-K18, 2-chloro-N-cyclopropyl-N-{[4-(propan-2-yl)phenyl]methyl}acetamide]	1.65
CC(c1ccccc1F)N1CCCC(NC(=O)CCl)C1=O (stereo not shown) [5-I10, 2-chloro-N-{1-[1-(2-fluorophenyl)ethyl]-2-oxopiperidin-3-yl}acetamide]	80.5
COc1ccc(C=C(C#N)C(=O)Nc2ccccc2C)cc1O [8-P15, 2-cyano-3-(3-hydroxy-4-methoxyphenyl)-N-(2-methylphenyl)prop-2-enamide]	120
Cn1cccc1C(=O)CCl [10-B04, 2-chloro-1-(1-methyl-1H-pyrrol-2-yl)ethan-1-one]	64.6
COc1ccc2[nH]c(C)c(C(=O)CCl)c2c1 [10-L05, 2-chloro-1-(5-methoxy-2-methyl-1H-indol-3-yl)ethan-1-one]	14.8
CCOC(=O)c1c(C)[nH]c(C(=O)CCl)c1C [10-J20, ethyl 5-(2-chloroacetyl)-2,4-dimethyl-1H-pyrrole-3-carboxylate]	1.66
N#Cc1ccc(NC(=O)CCl)cc1Cl [4-N03, 2-chloro-N-(3-chloro-4-cyanophenyl)acetamide]	0.427
C=CC(=O)Nc1ccc(S(C)(=O)=O)cc1OCC [2-C08, N-(2-ethoxy-4-methanesulfonylphenyl)prop-2-enamide]	0.998
N#CC(=Cc1ccsc1)C(=O)NCc1ccc(Cl)cc1 [8-I15, N-[(4-chlorophenyl)methyl]-2-cyano-3-(thiophen-3-yl)prop-2-enamide]	101
N#CC(=Cc1ccc(-c2ccc(Cl)cc2)o1)C(=O)Nc1ccccc1 [8-O03, 3-[5-(4-chlorophenyl)furan-2-yl]-2-cyano-N-phenylprop-2-enamide]	58.3
C=CC(=O)NC1CC(=O)N(CC)C1 (stereo not shown) [2-O22, N-(1-ethyl-5-oxopyrrolidin-3-yl)prop-2-enamide]	91.7
CC(Cl)C(=O)NCc1conc1C1CCC1 (stereo not shown) [5-L21, 2-chloro-N-[(3-cyclobutyl-1,2-oxazol-4-yl)methyl]propanamide]	101
C=CC(=O)N1CCC(C(=O)NCc2ccccc2)CC1 [1-I05, N-benzyl-1-(prop-2-enoyl)piperidine-4-carboxamide]	86.7
Cc1cccc(C=C(C#N)C(=O)Nc2ccc(F)cc2)c1 [9-I19, 2-cyano-N-(4-fluorophenyl)-3-(3-methylphenyl)prop-2-enamide]	113
C=CC(=O)N1CCCn2ncc(C3CC3)c21 [3-M15, 1-{3-cyclopropyl-4H,5H,6H,7H-pyrazolo[1,5-a]pyrimidin-4-yl}prop-2-en-1-one]	1.25
C=CC(=O)NCCN1CCCCC1C (stereo not shown) [2-M09, N-[2-(2-methylpiperidin-1-yl)ethyl]prop-2-enamide]	182
CN(CC1CCCCC1)C(=O)C(C)(C)NC(=O)CCl [6-A19, 2-(2-chloroacetamido)-N-(cyclohexylmethyl)-N,2-dimethylpropanamide]	61.9
COc1ccc(C(=O)CCl)c(OC)c1 [10-G18, 2-chloro-1-(2,4-dimethoxyphenyl)ethan-1-one]	66.7
COCCn1c(N)c(C(=O)CCl)c(=O)[nH]c1=O [10-N12, 6-amino-5-(2-chloroacetyl)-1-(2-methoxyethyl)-1,2,3,4-tetrahydropyrimidine-2,4-dione]	103
C=CC(=O)NCc1noc(-c2cccs2)n1 [3-H15, N-{[5-(thiophen-2-yl)-1,2,4-oxadiazol-3-yl]methyl}prop-2-enamide]	93.9
N#CC(=Cc1ccc(-c2ccccc2F)o1)C(=O)Nc1nccs1 [9-A08, 2-cyano-3-[5-(2-fluorophenyl)furan-2-yl]-N-(1,3-thiazol-2-yl)prop-2-enamide]	110

Structure (SMILES)	viability at 48 h, 25 µM [%]
CC(C)c1cc(O)nc(N2CCC(NC(=O)CCl)C2)n1 (stereo not shown) [4-D13, 2-chloro-N-{1-[4-hydroxy-6-(propan-2-yl)pyrimidin-2-yl]pyrrolidin-3-yl}acetamide]	2.02
COc1ccccc1N=Nc1ccc(NC(=O)CCl)cc1C [6-J06, 2-chloro-N-{4-[2-(2-methoxyphenyl)diazen-1-yl]-3-methylphenyl}acetamide]	0.765
N#CC(=Cc1cccs1)C(=O)NCc1ccco1 [9-L08, 2-cyano-N-[(furan-2-yl)methyl]-3-(thiophen-2-yl)prop-2-enamide]	110
CCc1ccccc1NC(=O)CN(C)C(=O)CCl [6-L06, 2-chloro-N-{[(2-ethylphenyl)carbamoyl]methyl}-N-methylacetamide]	0.728
C=CC(=O)Nc1ccc2oc(CC(C)(C)C)nc2c1 [3-K18, N-[2-(2,2-dimethylpropyl)-1,3-benzoxazol-5-yl]prop-2-enamide]	82.2
CC(C)CNC(=O)c1ccccc1NC(=O)CCl [4-E04, 2-(2-chloroacetamido)-N-(2-methylpropyl)benzamide]	0.855
O=C(CCl)NCC1CCN(C(=O)c2ccccc2)CC1 [7-L06, N-[(1-benzoylpiperidin-4-yl)methyl]-2-chloroacetamide]	0.868
CC(Cl)C(=O)NCC1=CCCOC1 (stereo not shown) [7-I05, 2-chloro-N-[(5,6-dihydro-2H-pyran-3-yl)methyl]propanamide]	89.9
CC(Cl)C(=O)N1CCn2c(Cc3c(F)cccc3F)nnc2C1 (stereo not shown) [6-F18, 2-chloro-1-{3-[(2,6-difluorophenyl)methyl]-5H,6H,7H,8H-[1,2,4]triazolo[4,3-a]pyrazin-7-yl}propan-1-one]	100
C=CC(=O)NCc1c(C(F)(F)F)coc1C [1-E17, N-{[2-methyl-4-(trifluoromethyl)furan-3-yl]methyl}prop-2-enamide]	84.9
CC(Cl)C(=O)NC1c2cc(F)ccc2CC1C (stereo not shown) [7-E16, 2-chloro-N-(6-fluoro-2-methyl-2,3-dihydro-1H-inden-1-yl)propanamide]	74.7
C=CC(=O)N1CCc2[nH]cnc2C1c1ccnn1C (stereo not shown) [3-A07, 1-[4-(1-methyl-1H-pyrazol-5-yl)-1H,4H,5H,6H,7H-imidazo[4,5-c]pyridin-5-yl]prop-2-en-1-one]	29.2
C=CC(=O)NCc1ccnc(OC2CCOCC2)c1 [2-B17, N-{[2-(oxan-4-yloxy)pyridin-4-yl]methyl}prop-2-enamide]	69.9
C=CC(=O)N1CCC(C(=O)N[C@@H]2CC[C@H](O)C2)(c2ccccc2)CC1 (racemic) [2-H16, rac-N-[(1R,3S)-3-hydroxycyclopentyl]-4-phenyl-1-(prop-2-enoyl)piperidine-4-carboxamide]	59.9
CC(Cl)C(=O)N1CCOCC1c1ncnn1Cc1ccccc1 (stereo not shown) [7-C08, 1-[3-(1-benzyl-1H-1,2,4-triazol-5-yl)morpholin-4-yl]-2-chloropropan-1-one]	95.7
CC(Cc1ccc(Cl)s1)NC(=O)CCl (stereo not shown) [5-N11, 2-chloro-N-[1-(5-chlorothiophen-2-yl)propan-2-yl]acetamide]	0.992
CC(Cl)C(=O)N1CCN(C(=O)c2ccc3ccccc3c2)CC1 (stereo not shown) [7-E07, 2-chloro-1-[4-(naphthalene-2-carbonyl)piperazin-1-yl]propan-1-one]	96.2
CC(Cl)C(=O)N1CCN(Cc2ccnn2C)CC1 (stereo not shown) [7-I22, 2-chloro-1-{4-[(1-methyl-1H-pyrazol-5-yl)methyl]piperazin-1-yl}propan-1-one]	99.9
O=CN1CCN(C(=O)CCl)CC1 [6-M17, 4-(2-chloroacetyl)piperazine-1-carbaldehyde]	2.22
C=CC(=O)NC(Cn1ccccc1=O)c1ccccc1 (stereo not shown) [2-B21, N-[2-(2-oxo-1,2-dihydropyridin-1-yl)-1-phenylethyl]prop-2-enamide]	72.3
CCN(C(=O)CCl)c1ccccc1 [6-E15, 2-chloro-N-ethyl-N-phenylacetamide]	1.62
COc1ccccc1N(CC(F)(F)F)C(=O)CCl [4-C18, 2-chloro-N-(2-methoxyphenyl)-N-(2,2,2-trifluoroethyl)acetamide]	7.84
C=CC(=O)Nc1ncccn1 [1-M12, N-(pyrimidin-2-yl)prop-2-enamide]	71.5
C=CCNC(=O)C(C#N)=Cc1ccccc1OC [9-H05, 2-cyano-3-(2-methoxyphenyl)-N-(prop-2-en-1-yl)prop-2-enamide]	114
Cc1nsc(N2CCN(C(=O)C(C)Cl)CC2)c1C#N (stereo not shown) [6-H15, 5-[4-(2-chloropropanoyl)piperazin-1-yl]-3-methyl-1,2-thiazole-4-carbonitrile]	91.4
N#CC(=Cc1cccc(F)c1F)C(N)=O [9-A03, 2-cyano-3-(2,3-difluorophenyl)prop-2-enamide]	115
O=C(CCl)N1CC2CCC(C1)O2 [6-M20, 2-chloro-1-{8-oxa-3-azabicyclo[3.2.1]octan-3-yl}ethan-1-one]	1.12
